Source: the supplement of paper PMC10307832

Key:
Assay in all cases: relative viability (nuclei count vs DMSO), 5 days (fraction); higher = more cells survive
A-427 = system: A-427
Outline: (§1)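 Lung cancer cell lines were seeded in 1536-well plates and dosed by pin tool the next day, with either a single drug or a fixed anchor-drug dose combined with five library-drug doses (not always all listed) spaced in √10 steps. Five days later, one step fixed the cells and stained their nuclei (final 0.05% Triton X-100, 1% formaldehyde, 1 ug/ml Hoechst), and nuclei were counted on 4× images. Relative viability is the nuclei count in treated wells divided by the count in vehicle wells, and each value is the median of duplicate plates.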

SW 1573 = system: SW 1573
Outline: as §1

RERF-LC-KJ = system: RERF-LC-KJ
Outline: as §1

PC-3 [JPC-3] = system: PC-3 [JPC-3]
Outline: as §1

NCI-H460 = system: NCI-H460
Outline: as §1

NCI-H1734 = system: NCI-H1734
Outline: as §1

HOP-62 = system: HOP-62
Outline: as §1

SK-LU-1 = system: SK-LU-1
Outline: as §1

HCC-15 = system: HCC-15
Outline: as §1

NCI-H1755 = system: NCI-H1755
Outline: as §1

NCI-H647 = system: NCI-H647
Outline: as §1

LOU-NH91 = system: LOU-NH91
Outline: as §1

NCI-H1975 = system: NCI-H1975
Outline: as §1

NCI-H1915 = system: NCI-H1915
Outline: as §1

LC-2-ad = system: LC-2-ad
Outline: as §1

NCI-H2126 = system: NCI-H2126
Outline: as §1

HCC-78 = system: HCC-78
Outline: as §1

NCI-H2228 = system: NCI-H2228
Outline: as §1

NCI-H358 = system: NCI-H358
Outline: as §1

NCI-H2347 = system: NCI-H2347
Outline: as §1

LXF-289 = system: LXF-289
Outline: as §1

NCI-H1792 = system: NCI-H1792
Outline: as §1

For `C=C1C(=O)O[C@@H](CCCCCCCC)[C@@H]1C(=O)O` [C-75] + C[C@]1(O)C[C@@H](c2nc(-c3ccc4ccc(-c5ccccc5)nc4c3)c3c(N)nccn32)C1 [Linsitinib] (partner 1 µM), the relative viability (A-427; first compound 0.08 µM) was 1.16, the relative viability (A-427; first compound 0.253 µM) was 1 and the relative viability (A-427; first compound 0.8 µM) was 1.06. For the same compound, the relative viability (A-427; first compound 2.53 µM) was 1.07, the relative viability (A-427; first compound 8 µM) was 1.09 and the relative viability (SW 1573; first compound 0.08 µM) was 0.819. The relative viability (SW 1573; first compound 0.253 µM) was 0.962, the relative viability (SW 1573; first compound 0.8 µM) was 0.833 and the relative viability (SW 1573; first compound 2.53 µM) was 0.615. It also gave a relative viability (SW 1573; first compound 8 µM) of 0.705, a relative viability (RERF-LC-KJ; first compound 0.08 µM) of 0.912 and a relative viability (RERF-LC-KJ; first compound 0.253 µM) of 0.994. The relative viability (RERF-LC-KJ; first compound 0.8 µM) was 0.827, the relative viability (RERF-LC-KJ; first compound 2.53 µM) was 0.739 and the relative viability (RERF-LC-KJ; first compound 8 µM) was 0.971. It also gave a relative viability (PC-3 [JPC-3]; first compound 0.08 µM) of 0.939, a relative viability (PC-3 [JPC-3]; first compound 0.253 µM) of 0.933 and a relative viability (PC-3 [JPC-3]; first compound 0.8 µM) of 0.951. The relative viability (PC-3 [JPC-3]; first compound 2.53 µM) was 1.02, the relative viability (PC-3 [JPC-3]; first compound 8 µM) was 1.09 and the relative viability (NCI-H460; first compound 0.08 µM) was 0.718. For the same compound, the relative viability (NCI-H460; first compound 0.253 µM) was 0.823, the relative viability (NCI-H460; first compound 0.8 µM) was 0.72 and the relative viability (NCI-H460; first compound 8 µM) was 0.582. It also gave a relative viability (NCI-H1734; first compound 0.08 µM) of 0.876, a relative viability (NCI-H1734; first compound 0.253 µM) of 0.813 and a relative viability (NCI-H1734; first compound 0.8 µM) of 0.804. For the same compound, the relative viability (NCI-H1734; first compound 2.53 µM) was 0.622, the relative viability (NCI-H1734; first compound 8 µM) was 0.732 and the relative viability (HOP-62; first compound 0.08 µM) was 0.944. The relative viability (HOP-62; first compound 0.253 µM) was 0.894, the relative viability (HOP-62; first compound 0.8 µM) was 0.841 and the relative viability (HOP-62; first compound 2.53 µM) was 0.843. It also gave a relative viability (HOP-62; first compound 8 µM) of 0.875, a relative viability (SK-LU-1; first compound 0.08 µM) of 1.28 and a relative viability (SK-LU-1; first compound 0.253 µM) of 1.07. For the same compound, the relative viability (SK-LU-1; first compound 0.8 µM) was 1.05, the relative viability (SK-LU-1; first compound 2.53 µM) was 0.911 and the relative viability (SK-LU-1; first compound 8 µM) was 0.636. It also gave a relative viability (HCC-15; first compound 0.08 µM) of 0.926, a relative viability (HCC-15; first compound 0.253 µM) of 0.978 and a relative viability (HCC-15; first compound 0.8 µM) of 0.924. The relative viability (HCC-15; first compound 2.53 µM) was 0.847, the relative viability (HCC-15; first compound 8 µM) was 0.902 and the relative viability (NCI-H1755; first compound 0.08 µM) was 0.946. For the same compound, the relative viability (NCI-H1755; first compound 0.253 µM) was 0.887, the relative viability (NCI-H1755; first compound 0.8 µM) was 0.98 and the relative viability (NCI-H1755; first compound 2.53 µM) was 0.775. The relative viability (NCI-H1755; first compound 8 µM) was 1.01, the relative viability (NCI-H647; first compound 0.08 µM) was 1.18 and the relative viability (NCI-H647; first compound 0.253 µM) was 1.31. For the same compound, the relative viability (NCI-H647; first compound 2.53 µM) was 0.903, the relative viability (NCI-H647; first compound 8 µM) was 0.823 and the relative viability (LOU-NH91; first compound 0.08 µM) was 1. It also gave a relative viability (LOU-NH91; first compound 0.253 µM) of 0.82, a relative viability (LOU-NH91; first compound 0.8 µM) of 0.875 and a relative viability (LOU-NH91; first compound 2.53 µM) of 0.859. For the same compound, the relative viability (LOU-NH91; first compound 8 µM) was 1.02, the relative viability (NCI-H1975; first compound 0.08 µM) was 0.958 and the relative viability (NCI-H1975; first compound 0.253 µM) was 1.02. It also gave a relative viability (NCI-H1975; first compound 0.8 µM) of 0.945, a relative viability (NCI-H1975; first compound 2.53 µM) of 0.897 and a relative viability (NCI-H1975; first compound 8 µM) of 0.898. For the same compound, the relative viability (NCI-H1915; first compound 0.08 µM) was 1.2, the relative viability (NCI-H1915; first compound 0.253 µM) was 1.17 and the relative viability (NCI-H1915; first compound 0.8 µM) was 0.993. For the same compound, the relative viability (NCI-H1915; first compound 2.53 µM) was 1.05, the relative viability (NCI-H1915; first compound 8 µM) was 1.07 and the relative viability (LC-2-ad; first compound 0.08 µM) was 0.869. For the same compound, the relative viability (LC-2-ad; first compound 0.253 µM) was 0.865, the relative viability (LC-2-ad; first compound 0.8 µM) was 0.798 and the relative viability (LC-2-ad; first compound 8 µM) was 0.855. For the same compound, the relative viability (NCI-H2126; first compound 0.08 µM) was 0.698, the relative viability (NCI-H2126; first compound 0.253 µM) was 0.783 and the relative viability (NCI-H2126; first compound 0.8 µM) was 0.703. The relative viability (NCI-H2126; first compound 2.53 µM) was 0.683, the relative viability (NCI-H2126; first compound 8 µM) was 0.711 and the relative viability (HCC-78; first compound 0.08 µM) was 0.642. It also gave a relative viability (HCC-78; first compound 0.253 µM) of 0.443, a relative viability (HCC-78; first compound 0.8 µM) of 0.493 and a relative viability (HCC-78; first compound 2.53 µM) of 0.437. The relative viability (HCC-78; first compound 8 µM) was 0.522, the relative viability (NCI-H2228; first compound 0.08 µM) was 1.03 and the relative viability (NCI-H2228; first compound 0.253 µM) was 1.04. For the same compound, the relative viability (NCI-H2228; first compound 0.8 µM) was 0.543, the relative viability (NCI-H2228; first compound 2.53 µM) was 0.594 and the relative viability (NCI-H2228; first compound 8 µM) was 0.66. It also gave a relative viability (NCI-H358; first compound 0.08 µM) of 0.734, a relative viability (NCI-H358; first compound 0.253 µM) of 0.823 and a relative viability (NCI-H358; first compound 0.8 µM) of 0.7. It also gave a relative viability (NCI-H358; first compound 2.53 µM) of 0.602, a relative viability (NCI-H358; first compound 8 µM) of 0.737 and a relative viability (NCI-H2347; first compound 0.08 µM) of 1.01. It also gave a relative viability (NCI-H2347; first compound 0.253 µM) of 0.959, a relative viability (NCI-H2347; first compound 0.8 µM) of 0.598 and a relative viability (NCI-H2347; first compound 2.53 µM) of 0.88. It also gave a relative viability (NCI-H2347; first compound 8 µM) of 1.07, a relative viability (LXF-289; first compound 0.08 µM) of 0.925 and a relative viability (LXF-289; first compound 0.253 µM) of 0.979. The relative viability (LXF-289; first compound 0.8 µM) was 0.953, the relative viability (LXF-289; first compound 2.53 µM) was 0.94 and the relative viability (LXF-289; first compound 8 µM) was 0.966. It also gave a relative viability (NCI-H1792; first compound 0.08 µM) of 0.527, a relative viability (NCI-H1792; first compound 0.253 µM) of 0.486 and a relative viability (NCI-H1792; first compound 0.8 µM) of 0.471. The relative viability (NCI-H1792; first compound 2.53 µM) was 0.377 and the relative viability (NCI-H1792; first compound 8 µM) was 0.544.
